Patent publication US6090802A, “1- Methylcarbapenem derivatives” (Sankyo Company, Limited, priority 1995, dated 2000)
Values after ≈ are worked out from the molar mass of the structure shown.

Tests used:
Escherichia coli NIHJ = assay: Antibacterial activity, agar plate dilution method (MIC); format: cell-based; details: Microorganism B: Escherichia coli NIHJ; read-out: Minimal inhibitory concentration
Experimental: Antibacterial activity was measured by the agar plate dilution method, whereby the minimal inhibitory concentration (μg/ml) against various pathogenic bacteria was determined. In the Table, bacteria A, B and C provided for the test are as follows: B: Escherichia coli NIHJ

[1] = system: Staphylococcus aureus 209P; assay: as above; format: cell-based; details: Microorganism A: Staphylococcus aureus 209P; read-out: Minimal inhibitory concentration
Experimental: Antibacterial activity was measured by the agar plate dilution method, whereby the minimal inhibitory concentration (μg/ml) against various pathogenic bacteria was determined. In the Table, bacteria A, B and C provided for the test are as follows: A: Staphylococcus aureus […]

[2] = system: Pseudomonas aeruginosa 1001; assay: as above; format: cell-based; details: Microorganism C: Pseudomonas aeruginosa 1001; read-out: Minimal inhibitory concentration
Experimental: Antibacterial activity was measured by the agar plate dilution method, whereby the minimal inhibitory concentration (μg/ml) against various pathogenic bacteria was determined. In the Table, bacteria A, B and C provided for the test are as follows: C: Pseudomonas aeruginosa 1001

[3] = in words; background art; cited from earlier work

SMILES | MIC (Escherichia coli NIHJ) | MIC [1] | MIC [2] | nephrotoxicity [3]
C[C@@H](O)[C@H]1C(=O)N2C(C(=O)O)=C(S[C@@H]3CN[C@H](C(=O)N4CC[C@H](NC(=O)[C@@H]5CCCN5)C4)C3)[C@H](C)[C@H]12 [Ex. 1, (1R,5S,6S)-6-(1R)-[1-Hydroxyethyl]-1-methyl-2-[(2S,4S)-2-[(3S)-3-(L-prolylamino)pyrrolidin-1-ylcarbonyl]pyrrolidin-4-ylthio]-1-carbapen-2-em-3-carboxylic acid] | ≤ 0.01 µg/mL | ≤ 0.01 µg/mL | 0.1 µg/mL (≈ 0.192 µM) | 
C[C@@H](O)[C@H]1C(=O)N2C(C(=O)O)=C(S[C@@H]3CN[C@H](C(=O)N4CC[C@H](NC(=O)CNC(=N)N)C4)C3)[C@H](C)[C@H]12 [Ex. 8] | ≤ 0.01 µg/mL | ≤ 0.01 µg/mL | 0.05 µg/mL (≈ 0.0955 µM) | 
C[C@@H](O)[C@H]1C(=O)N2C(C(=O)O)=C(S[C@@H]3CN[C@H](C(O)CC(=O)N4CC[C@H](N)C4)C3)[C@H](C)[C@H]12 (stereo partly drawn) [Ex. 12, (1R,5S,6S)-2-[(2S,4S)-2-[1-Hydroxy-2-[(3S)-3-aminopyrrolidin-1-ylcarbonyl]ethyl]-pyrrolidin-4-ylthio]-6-[(1R)-1-hydroxyethyl]-1-methyl-1-carbapen-2-em-3-carboxylic acid] | 0.02 µg/mL (≈ 0.0427 µM) | ≤ 0.01 µg/mL | 0.2 µg/mL (≈ 0.427 µM) | 
C[C@@H](O)[C@H]1C(=O)N2C(C(=O)O)=C(S[C@@H]3CN[C@H](C(=O)N4CC(NC(=O)CCNC(=N)N)C4)C3)[C@H](C)[C@H]12 [Ex. 17, (1R,5S,6S)-2-[(2S,4S)-2-[3-(3-Guanidinopropanoylamino)azetidin-1-ylcarbonyl]-pyrrolidin-4-ylthio]-6-[(1R)-1-hydroxyethyl]-1-methyl-1-carbapen-2-em-3-carboxylic acid] | ≤ 0.01 µg/mL | ≤ 0.01 µg/mL | 0.05 µg/mL (≈ 0.0955 µM) | 
C[C@@H](NC(=N)N)C(=O)N[C@H]1CCN(C(=O)[C@@H]2C[C@H](SC3=C(C(=O)O)N4C(=O)[C@H]([C@@H](C)O)[C@H]4[C@H]3C)CN2)C1 [Ex. 27, (1R,5S,6S)-2-[(2S,4S)-2-[(3S)-3-[(2R)-2-Guanidino-2-methylacetylamino]pyrrolidin-1-ylcarbonyl]pyrrolidin-4-ylthio]-6-[(1R)-1-hydroxyethyl]-1-methyl-1-carbapen-2-em-3-carboxylic acid] | ≤ 0.01 µg/mL | ≤ 0.01 µg/mL | 0.05 µg/mL (≈ 0.093 µM) | 
C[C@@H](O)[C@H]1C(=O)N2C(C(=O)O)=C(S[C@@H]3CN[C@H](C(O)CC(=O)N[C@H]4CCNC4)C3)[C@H](C)[C@H]12 (stereo partly shown) [Ex. 49] | 0.02 µg/mL (≈ 0.0427 µM) | ≤ 0.01 µg/mL | 0.4 µg/mL (≈ 0.854 µM) | 
C[C@@H](O)[C@H]1C(=O)N2C(C(=O)O)=C(S[C@@H]3CN[C@H](C(O)CC(=O)N4CCN(C(=N)N)CC4)C3)[C@H](C)[C@H]12 (stereo partly drawn) [Ex. 51, (1R,5S,6S)-2-[(2S,4S)-2-[2-(4-Guanylpiperazin-1-ylcarbonyl)-1-hydroxyethyl]-pyrrolidin-4-ylthio]-6-[(1R)-1-hydroxyethyl]-1-methyl-1-carbapen-2-em-3-carboxylic acid] | 0.02 µg/mL (≈ 0.0392 µM) | ≤ 0.01 µg/mL | 0.2 µg/mL (≈ 0.392 µM) | 
C[C@@H](O)[C@H]1C(=O)N2C(C(=O)O)=C(S[C@@H]3CN[C@H]([C@H](O)CC(=O)N4CC[C@H](N)C4)C3)[C@H](C)[C@H]12 [Ex. 59, (1R,5S,6S)-2-[(2S,4S)-2-[2-[(3S)-3-Aminopyrrolidin-1-ylcarbonyl]-(1R)-1-hydroxyethyl]pyrrolidin-4-ylthio]-6-[(1R)-1-hydroxyethyl]-1-methyl-1-carbapen-2-em-3-carboxylic acid] | 0.02 µg/mL (≈ 0.0427 µM) | ≤ 0.01 µg/mL | 0.2 µg/mL (≈ 0.427 µM) | 
C[C@@H](O)[C@H]1C(=O)N2C(C(=O)O)=C(S[C@@H]3CN[C@H]([C@@H](O)CC(=O)N4CC[C@H](N)C4)C3)[C@H](C)[C@H]12 [Ex. 60, (1R,5S,6S)-2-[(2S,4S)-2-[2-[(3S)-3-Aminopyrrolidin-1-ylcarbonyl]-(1S)-1-hydroxyethyl]pyrrolidin-4-ylthio]-6-[(1R)-1-hydroxyethyl]-1-methyl-1-carbapen-2-em-3-carboxylic acid] | 0.02 µg/mL (≈ 0.0427 µM) | ≤ 0.01 µg/mL | 0.4 µg/mL (≈ 0.854 µM) | 
C[C@@H](O)[C@H]1C(=O)N2C(C(=O)O)=C(SCCN=CN)C[C@H]12 [Imipenem, imipenem, reference compound] | 0.05 µg/mL (≈ 0.167 µM) | ≤ 0.01 µg/mL | 3.1 µg/mL (≈ 10.4 µM) | exhibits nephrotoxicity
